From ChEMBL document CHEMBL1130729, “Synthesis and transporter binding properties of (R)-2 beta, 3 beta- and (R)-2 alpha, 3 alpha-diaryltropanes” (Bioorg Med Chem Lett, 1998)

Assays:
[1] = biological target: Sodium-dependent dopamine transporter (Rattus norvegicus, UniProt P23977); assay: Inhibitory activity against radioligand [3H]WIN-35428 binding at the dopamine transporter
[2] = biological target: Norepinephrine transporter (Rattus norvegicus, UniProt Q9WTR4); assay: Inhibitory activity against radioligand [3H]nisoxetine binding at the norepinephrine transporter
[3] = biological target: Sodium-dependent serotonin transporter (Rattus norvegicus, UniProt P31652); assay: Inhibitory activity against radioligand [3H]paroxetine binding at the serotonin transporter
Sequence of Sodium-dependent serotonin transporter (P31652 whole entry): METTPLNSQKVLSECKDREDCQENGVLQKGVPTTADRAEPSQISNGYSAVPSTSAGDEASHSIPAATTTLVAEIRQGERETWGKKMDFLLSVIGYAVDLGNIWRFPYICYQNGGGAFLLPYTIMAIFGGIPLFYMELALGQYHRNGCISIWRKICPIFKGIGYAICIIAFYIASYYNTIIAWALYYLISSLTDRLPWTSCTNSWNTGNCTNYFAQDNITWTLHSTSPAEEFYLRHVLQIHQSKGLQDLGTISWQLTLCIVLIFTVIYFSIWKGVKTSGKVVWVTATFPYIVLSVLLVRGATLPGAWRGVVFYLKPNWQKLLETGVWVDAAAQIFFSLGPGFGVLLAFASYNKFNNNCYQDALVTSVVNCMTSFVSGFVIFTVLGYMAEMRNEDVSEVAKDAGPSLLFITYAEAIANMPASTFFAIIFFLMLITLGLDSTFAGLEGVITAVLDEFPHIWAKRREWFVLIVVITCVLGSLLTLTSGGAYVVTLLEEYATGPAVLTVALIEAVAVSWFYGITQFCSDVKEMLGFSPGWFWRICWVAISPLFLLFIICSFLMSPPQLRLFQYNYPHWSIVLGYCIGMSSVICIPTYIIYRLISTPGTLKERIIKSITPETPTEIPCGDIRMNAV

Sequence of Sodium-dependent dopamine transporter (P23977 whole entry): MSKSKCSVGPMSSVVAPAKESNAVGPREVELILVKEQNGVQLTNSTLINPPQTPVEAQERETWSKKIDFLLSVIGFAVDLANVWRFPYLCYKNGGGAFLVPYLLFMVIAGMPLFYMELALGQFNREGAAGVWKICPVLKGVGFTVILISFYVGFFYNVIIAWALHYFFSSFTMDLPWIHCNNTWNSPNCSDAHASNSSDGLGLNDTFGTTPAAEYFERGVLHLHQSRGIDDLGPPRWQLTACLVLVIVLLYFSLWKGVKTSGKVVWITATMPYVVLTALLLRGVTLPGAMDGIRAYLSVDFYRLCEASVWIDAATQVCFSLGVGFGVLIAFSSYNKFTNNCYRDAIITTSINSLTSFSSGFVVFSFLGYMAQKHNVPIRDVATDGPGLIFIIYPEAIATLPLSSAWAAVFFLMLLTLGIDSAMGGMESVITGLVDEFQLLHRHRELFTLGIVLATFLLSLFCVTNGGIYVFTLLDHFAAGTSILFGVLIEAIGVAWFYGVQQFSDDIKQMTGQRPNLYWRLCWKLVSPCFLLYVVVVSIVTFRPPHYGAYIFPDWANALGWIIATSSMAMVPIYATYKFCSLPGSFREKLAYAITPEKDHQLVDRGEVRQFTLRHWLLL
Sequence of Norepinephrine transporter (Q9WTR4 whole entry): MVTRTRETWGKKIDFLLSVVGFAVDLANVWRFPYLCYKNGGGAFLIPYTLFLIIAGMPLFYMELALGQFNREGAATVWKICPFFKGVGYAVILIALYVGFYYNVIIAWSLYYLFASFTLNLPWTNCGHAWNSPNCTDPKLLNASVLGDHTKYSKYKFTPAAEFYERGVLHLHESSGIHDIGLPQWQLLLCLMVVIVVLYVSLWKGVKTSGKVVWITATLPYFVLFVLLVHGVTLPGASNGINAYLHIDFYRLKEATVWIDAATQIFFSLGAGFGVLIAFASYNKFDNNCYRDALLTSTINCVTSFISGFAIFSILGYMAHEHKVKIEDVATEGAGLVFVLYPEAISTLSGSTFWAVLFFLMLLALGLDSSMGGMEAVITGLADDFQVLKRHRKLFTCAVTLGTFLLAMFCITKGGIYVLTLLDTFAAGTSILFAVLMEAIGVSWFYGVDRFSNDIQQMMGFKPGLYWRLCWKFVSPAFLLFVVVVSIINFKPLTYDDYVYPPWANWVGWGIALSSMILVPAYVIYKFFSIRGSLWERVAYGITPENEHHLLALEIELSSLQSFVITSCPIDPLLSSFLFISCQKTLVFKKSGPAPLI

Compound | IC50 [1] [nM] | IC50 [2] [nM] | IC50 [3] [nM]
CN1[C@@H]2CC[C@H]1C(c1ccccc1)C(c1ccccc1)C2 (mixture of isomers; form 1) | 28 | 2670 | 34700
CN1[C@@H]2CC[C@H]1C(c1ccccc1)C(c1ccccc1)C2 (mixture of isomers; form 2) |  | 2770 | 186000
CN1C2CC[C@@H]1C[C@@H](c1ccccc1)[C@@H]2c1ccccc1 (single isomer, unassigned; form 2) | 690 | 1040 | 41300
Cc1ccc(C2C[C@H]3CCC(C2c2ccccc2)N3C)cc1 (stereo in doubt; (R)-3b) | 1.96 | 479 | 11000
CN1C2CC[C@@H]1C[C@@H](c1ccccc1)[C@@H]2c1ccccc1 (single isomer, unassigned; form 1) | 12.6 | 917 | 21100
Cc1ccc(C2C[C@H]3CCC(C2c2ccccc2)N3C)cc1 (stereo in doubt; (R)-4b) | 429 | 4850 | 15800
